Values of other authors in US20080187561A1, “Enteric Coated Didanosine Compositions Having A Subcoat” (priority 2007, published 2008).

Settings: pH<3, 37° C., acidic solution

Time in which 10% of didanosine decomposes to hypoxanthine: less than 2 minutes
SMILES: OC[C@@H]1CC[C@H](n2cnc3c(O)ncnc32)O1 [didanosine, 2′,3′-dideoxyinosine]
